Reference: patent US9144569B2, “Methods of administering an aromatase inhibitor, prostaglandin and GnRH for regulating ovulation in cattle” (UNIVERSITY OF SASKATCHEWAN, priority 2010, dated 2015)

Experiments:
plasma progesterone = test: Example III: plasma progesterone after letrozole IM; assay type: in vivo, cattle; conditions: 1 mg/kg IM; P<0.06
Experimental: Ovarian cyclicity in heifers was synchronized using transvaginal ultrasound-guided follicular ablation followed by a double dose of PGF 4 days after ablation. The ovaries were examined daily by transrectal ultrasonography to detect ovulation. Three days after ovulation, heifers were assigned randomly to four treatment groups and given letrozole at a dose of 1 mg/kg intravenously (in benzyl alcohol, n=10) or intramuscularly (in benzyl alcohol plus canola oil 1:1 v/v, n=10), or given a placebo intravenously (benzyl alcohol, n=5) or intramuscularly (benzyl alcohol plus canola oil 1:1 v/v, n=5). Ovarian structures were monitored by ultrasonography and blood samples were collected by jugular venipuncture twice daily from pre-treatment to post-treatment ovulations. Comparisons among groups were made by one-way ANOVA for single-point measurements and by ANOVA for repeated measures for time-series data.
Blood samples collected daily from treatment to post-treatment ovulation.
Endpoints are: Follicular diameter profiles; CL diameter profile; Circulating progesterone concentration; Circulating FSH and LH profiles; Letrozole profile and bioavailability; Circulating estradiol concentration Follicular fluid estradiol concentration).

women = test: Letrozole at expected time of ovulation in women; assay type: in vivo, human; conditions: women treated at 18 mm follicle diameter
plasma FSH = test: Example II: plasma FSH during 3-day letrozole regimen; assay type: in vivo, cattle; conditions: 3-day regimen
Experimental: Four days after follicular ablation, heifers were given 500 μg of cloprostenol (PGF, Estrumate, Schering-Plough Animal Health, Pointe-Claire, QC, Canada) intramuscularly (im) to induce regression of the CL and to synchronize ovulation. The experiment was performed in two replicates (n=20-27 per replicate) and each heifer was used only once. In replicate 1, heifers were assigned randomly at the time of ovulation (Day 0) to the following groups and given a 3-day regimen of letrozole from Days 1 to 3 (n=5), Days 3 to 5 (n=5), Days 5 to 7 (n=5), or no treatment (control group, n=5). In replicate 2, heifers were similarly assigned to groups and given letrozole from Days 1 to 3, (n=5), Days 3 to 5 (n=4), or Days 5 to 7 (n=4), but untreated control heifers were arranged in three sub-groups to serve as contemporaneous controls for each letrozole-group during intensive blood sampling periods (i.e., control Days 1 to 3, n=4; control Days 3 to 5, n=4; and control Days 5 to 7, n=5). For practical purposes, the total dose of letrozole (250 μg/kg) was calculated on the basis of an average weight of 350 kg for all heifers and administered intravenously in daily divided doses over 3 days (85 μg/kg per day). […]
Plasma FSH concentrations were determined in duplicate using a double-antibody radioimmunoassay using NIDDK-anti-oFSH-1 primary antibody and expressed as USDA bovine FSH-I1 units. […]

N#Cc1ccc(C(c2ccc(C#N)cc2)n2cncn2)cc1 [Letrozole, letrozole]
plasma progesterone concentrations vs IM controls (plasma progesterone): tended to be higher | ovulation earlier than controls (women): 24 h | plasma FSH levels compared with respective controls (plasma FSH): No differences
